System: 857933-349-R-J2-PDC complex spheroids, viability
Test: Anticancer human tumor 857933-349-R-J2-PDC patient-derived colon adenocarcinoma cell line growth inhibition [GQUAD]
Settings: for IC50: curve of first compound; for viability, T/C: stronger effect = lower value
Summary of the method: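 Viability of tumor cells grown as complex spheroids with endothelial and stromal cells, exposed to drug combinations. Top concentration at or near clinical Cmax (else 10 microM), diluted in half-log increments.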

[1] = second compound 0.0316 µM, first compound 0.0316 µM
[2] = second compound 0.0316 µM, first compound 0.1 µM
[3] = second compound 0.0316 µM, first compound 0.316 µM
[4] = second compound 0.0316 µM, first compound 1 µM
[5] = second compound 0.0316 µM, first compound 3.16 µM
[6] = second compound 0.0316 µM, first compound 10 µM
[7] = second compound 0.1 µM, first compound 0.0316 µM
[8] = second compound 0.1 µM, first compound 0.1 µM
[9] = second compound 0.1 µM, first compound 0.316 µM
[10] = second compound 0.1 µM, first compound 1 µM
[11] = second compound 0.1 µM, first compound 3.16 µM
[12] = second compound 0.1 µM, first compound 10 µM
[13] = second compound 0.316 µM, first compound 0.0316 µM
[14] = second compound 0.316 µM, first compound 0.1 µM
[15] = second compound 0.316 µM, first compound 0.316 µM
[16] = second compound 0.316 µM, first compound 1 µM
[17] = second compound 0.316 µM, first compound 3.16 µM
[18] = second compound 0.316 µM, first compound 10 µM
[19] = second compound 1 µM, first compound 0.0316 µM
[20] = second compound 1 µM, first compound 0.1 µM
[21] = second compound 1 µM, first compound 0.316 µM
[22] = second compound 1 µM, first compound 1 µM
[23] = second compound 1 µM, first compound 3.16 µM
[24] = second compound 1 µM, first compound 10 µM
[25] = second compound 3.16 µM, first compound 0.0316 µM
[26] = second compound 3.16 µM, first compound 0.1 µM
[27] = second compound 3.16 µM, first compound 0.316 µM
[28] = second compound 3.16 µM, first compound 1 µM
[29] = second compound 3.16 µM, first compound 3.16 µM
[30] = second compound 3.16 µM, first compound 10 µM
[31] = second compound 10 µM, first compound 0.0316 µM
[32] = second compound 10 µM, first compound 0.1 µM
[33] = second compound 10 µM, first compound 0.316 µM
[34] = second compound 10 µM, first compound 1 µM
[35] = second compound 10 µM, first compound 3.16 µM
[36] = second compound 10 µM, first compound 10 µM
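Also: spheroids exposed to compounds for one week before readout.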
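For viability, T/C in this document: percent viability relative to vehicle DMSO wells taken as 100%.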

SMILES: C#Cc1c(F)ccc2cc(O)cc(-c3ncc4c(N5CC6CCC(C5)N6)nc(OCC56CCCN5CC(F)C6)nc4c3F)c12 (stereo not given) + Cc1[nH]c2ccc(F)cc2c1-c1nc2c3cccnc3c3ncccc3c2[nH]1
- IC50 (second compound 0.0316 µM): > 10000 nM
- IC50 (second compound 0.1 µM): > 10000 nM
- IC50 (second compound 0.316 µM): > 10000 nM
- IC50 (second compound 1 µM): > 10000 nM
- IC50 (second compound 3.16 µM): > 10000 nM
- IC50 (second compound 10 µM): > 10000 nM
- viability, T/C [1]: 109%
- viability, T/C [2]: 96.3%
- viability, T/C [3]: 91.9%
- viability, T/C [4]: 80.7%
- viability, T/C [5]: 74.3%
- viability, T/C [6]: 63.9%
- viability, T/C [7]: 104%
- viability, T/C [8]: 98.5%
- viability, T/C [9]: 89.2%
- viability, T/C [10]: 85.2%
- viability, T/C [11]: 71.3%
- viability, T/C [12]: 66.7%
- viability, T/C [13]: 101%
- viability, T/C [14]: 90.8%
- viability, T/C [15]: 86.3%
- viability, T/C [16]: 78.4%
- viability, T/C [17]: 81.7%
- viability, T/C [18]: 70.1%
- viability, T/C [19]: 98.2%
- viability, T/C [20]: 87.5%
- viability, T/C [21]: 93.3%
- viability, T/C [22]: 78.8%
- viability, T/C [23]: 86.7%
- viability, T/C [24]: 75.7%
- viability, T/C [25]: 94.3%
- viability, T/C [26]: 83.2%
- viability, T/C [27]: 81.6%
- viability, T/C [28]: 73.3%
- viability, T/C [29]: 80.8%
- viability, T/C [30]: 74.3%
- viability, T/C [31]: 90.4%
- viability, T/C [32]: 93.7%
- viability, T/C [33]: 87%
- viability, T/C [34]: 79.9%
- viability, T/C [35]: 78.8%
- viability, T/C [36]: 66.8%

SMILES: CC(=O)O[C@H]1C(=O)[C@@]2(C)[C@H]([C@H](OC(=O)c3ccccc3)[C@]3(O)C[C@H](OC(=O)[C@H](O)[C@@H](NC(=O)c4ccccc4)c4ccccc4)C(C)=C1C3(C)C)[C@]1(OC(C)=O)CO[C@@H]1C[C@@H]2O + Cc1[nH]c2ccc(F)cc2c1-c1nc2c3cccnc3c3ncccc3c2[nH]1
- IC50 (second compound 0.0316 µM): < 31.6 nM
- IC50 (second compound 0.1 µM): < 31.6 nM
- IC50 (second compound 0.316 µM): 41.3 nM
- IC50 (second compound 1 µM): 32.9 nM
- IC50 (second compound 3.16 µM): 39.5 nM
- IC50 (second compound 10 µM): < 31.6 nM
- viability, T/C [1]: 43.9%
- viability, T/C [2]: 16.9%
- viability, T/C [3]: 11.6%
- viability, T/C [4]: 11.4%
- viability, T/C [5]: 11.1%
- viability, T/C [6]: 12.6%
- viability, T/C [7]: 44.9%
- viability, T/C [8]: 17.1%
- viability, T/C [9]: 11.4%
- viability, T/C [10]: 11.8%
- viability, T/C [11]: 12.7%
- viability, T/C [12]: 13.1%
- viability, T/C [13]: 59.8%
- viability, T/C [14]: 17.8%
- viability, T/C [15]: 10.8%
- viability, T/C [16]: 11%
- viability, T/C [17]: 12.8%
- viability, T/C [18]: 13.5%
- viability, T/C [19]: 51.2%
- viability, T/C [20]: 17.7%
- viability, T/C [21]: 11.8%
- viability, T/C [22]: 12.3%
- viability, T/C [23]: 14.2%
- viability, T/C [24]: 12.4%
- viability, T/C [25]: 58%
- viability, T/C [26]: 16.6%
- viability, T/C [27]: 14.5%
- viability, T/C [28]: 12.8%
- viability, T/C [29]: 15%
- viability, T/C [30]: 16.4%
- viability, T/C [31]: 43.2%
- viability, T/C [32]: 17.1%
- viability, T/C [33]: 14%
- viability, T/C [34]: 13.3%
- viability, T/C [35]: 16.7%
- viability, T/C [36]: 16.2%

SMILES: CCCS(=O)(=O)Nc1ccc(F)c(C(=O)c2c[nH]c3ncc(-c4ccc(Cl)cc4)cc23)c1F + Cc1[nH]c2ccc(F)cc2c1-c1nc2c3cccnc3c3ncccc3c2[nH]1
- IC50 (second compound 0.0316 µM): 5430 nM
- IC50 (second compound 0.1 µM): 5230 nM
- IC50 (second compound 0.316 µM): 5230 nM
- IC50 (second compound 1 µM): 5110 nM
- IC50 (second compound 3.16 µM): 5010 nM
- IC50 (second compound 10 µM): 4740 nM
- viability, T/C [1]: 101%
- viability, T/C [2]: 98.1%
- viability, T/C [3]: 94.7%
- viability, T/C [4]: 115%
- viability, T/C [5]: 89.8%
- viability, T/C [6]: 4.88%
- viability, T/C [7]: 97.8%
- viability, T/C [8]: 97.7%
- viability, T/C [9]: 102%
- viability, T/C [10]: 105%
- viability, T/C [11]: 85%
- viability, T/C [12]: 4.75%
- viability, T/C [13]: 97.8%
- viability, T/C [14]: 97.5%
- viability, T/C [15]: 96%
- viability, T/C [16]: 94.3%
- viability, T/C [17]: 84.4%
- viability, T/C [18]: 5.8%
- viability, T/C [19]: 97.1%
- viability, T/C [20]: 85.1%
- viability, T/C [21]: 90.2%
- viability, T/C [22]: 82.8%
- viability, T/C [23]: 81.1%
- viability, T/C [24]: 6.53%
- viability, T/C [25]: 84.4%
- viability, T/C [26]: 74.2%
- viability, T/C [27]: 79.1%
- viability, T/C [28]: 74.2%
- viability, T/C [29]: 82.9%
- viability, T/C [30]: 6.5%
- viability, T/C [31]: 82.7%
- viability, T/C [32]: 85.2%
- viability, T/C [33]: 80.5%
- viability, T/C [34]: 84.5%
- viability, T/C [35]: 73.7%
- viability, T/C [36]: 6.22%

SMILES: Nc1ccn(C2OC(CO)C(O)C2(F)F)c(=O)n1 (stereo not given) + Cc1[nH]c2ccc(F)cc2c1-c1nc2c3cccnc3c3ncccc3c2[nH]1
- IC50 (second compound 0.0316 µM): 337 nM
- IC50 (second compound 0.1 µM): 153 nM
- IC50 (second compound 0.316 µM): 339 nM
- IC50 (second compound 1 µM): 169 nM
- IC50 (second compound 3.16 µM): 270 nM
- IC50 (second compound 10 µM): 255 nM
- viability, T/C [1]: 73.6%
- viability, T/C [2]: 50.7%
- viability, T/C [3]: 53%
- viability, T/C [4]: 12.2%
- viability, T/C [5]: 8.63%
- viability, T/C [6]: 7.04%
- viability, T/C [7]: 81.9%
- viability, T/C [8]: 55.6%
- viability, T/C [9]: 40.1%
- viability, T/C [10]: 13.4%
- viability, T/C [11]: 8.84%
- viability, T/C [12]: 6.64%
- viability, T/C [13]: 71.9%
- viability, T/C [14]: 54.7%
- viability, T/C [15]: 53.2%
- viability, T/C [16]: 12%
- viability, T/C [17]: 7.77%
- viability, T/C [18]: 6.81%
- viability, T/C [19]: 76.5%
- viability, T/C [20]: 54.2%
- viability, T/C [21]: 45.2%
- viability, T/C [22]: 10.6%
- viability, T/C [23]: 8.22%
- viability, T/C [24]: 6.71%
- viability, T/C [25]: 74.5%
- viability, T/C [26]: 53.2%
- viability, T/C [27]: 50.2%
- viability, T/C [28]: 11.6%
- viability, T/C [29]: 8.23%
- viability, T/C [30]: 7.07%
- viability, T/C [31]: 73%
- viability, T/C [32]: 47.9%
- viability, T/C [33]: 48.8%
- viability, T/C [34]: 10.1%
- viability, T/C [35]: 7.69%
- viability, T/C [36]: 8.66%

SMILES: O=c1[nH]cc(F)c(=O)[nH]1 + Cc1[nH]c2ccc(F)cc2c1-c1nc2c3cccnc3c3ncccc3c2[nH]1
- IC50 (second compound 0.0316 µM): 1720 nM
- IC50 (second compound 0.1 µM): 1800 nM
- IC50 (second compound 0.316 µM): 2100 nM
- IC50 (second compound 1 µM): 2150 nM
- IC50 (second compound 3.16 µM): 2060 nM
- IC50 (second compound 10 µM): 2200 nM
- viability, T/C [1]: 97.1%
- viability, T/C [2]: 111%
- viability, T/C [3]: 99%
- viability, T/C [4]: 65.7%
- viability, T/C [5]: 33.3%
- viability, T/C [6]: 22.6%
- viability, T/C [7]: 104%
- viability, T/C [8]: 103%
- viability, T/C [9]: 96.8%
- viability, T/C [10]: 64.8%
- viability, T/C [11]: 36%
- viability, T/C [12]: 22.5%
- viability, T/C [13]: 100%
- viability, T/C [14]: 99.3%
- viability, T/C [15]: 94%
- viability, T/C [16]: 74.9%
- viability, T/C [17]: 36.1%
- viability, T/C [18]: 22.6%
- viability, T/C [19]: 101%
- viability, T/C [20]: 98.2%
- viability, T/C [21]: 96.7%
- viability, T/C [22]: 75.7%
- viability, T/C [23]: 37%
- viability, T/C [24]: 23%
- viability, T/C [25]: 96.3%
- viability, T/C [26]: 94.7%
- viability, T/C [27]: 96.7%
- viability, T/C [28]: 73.8%
- viability, T/C [29]: 36.1%
- viability, T/C [30]: 22.6%
- viability, T/C [31]: 93.2%
- viability, T/C [32]: 96.8%
- viability, T/C [33]: 95.2%
- viability, T/C [34]: 82%
- viability, T/C [35]: 35.3%
- viability, T/C [36]: 24.8%

From PubChem BioAssay AID2060491 (Molecular Pharmacology Branch, DTP, NCI, 2025)
